{"source": "patent US8586556B2", "about": "“Methods, compositions and drug delivery systems for intraocular delivery of siRNA molecules” (Allergan, Inc., priority 2006, dated 2013)", "system": "neovascularization", "test": "Placement of the drug delivery systems into the vitreous of an eye: duration of therapeutic benefit", "type": "in vivo", "settings": "drug delivery system placed into the vitreous of an eye", "from_the_text": "(§1) Drug delivery systems which comprise about 86.1 milligrams of Cand5 can be produced similar to those systems described in Examples 1. Such drug delivery systems release Cand5 at a rate from about 49.7 micrograms per day to about 4970 micrograms per day. The release rates can be measured using in vitro and/or in vivo assays as described above. […] Improvements in patient function, such as vision and intraocular pressure, can be observed at longer time periods.\nas §1, with “siRNA Z” for “Cand5”, “1, above.” for “1.”", "data": [{"substance": "Cand5: siRNA from Acuity Pharmaceuticals/Avecia that silences genes producing VEGF; sense SEQ ID NO: 3, antisense SEQ ID NO: 4 (sense ACCUCACCAAGGCCAGCAC; antisense GUGCUGGCCUUGGUGAGGU; listed as RNA, chemistry not fully specified; listed as Homo Sapiens)", "values": [{"measurement": "duration of therapeutic benefits, such as the treatment of neovascularization, after a single administration", "result": "at least about thirty days"}]}]}
